Experiments:
[1] = one week, cited from earlier work
[2] = Solvent rinsing and tape peel testing of coatings (IR/DRIFT); type: physicochemical; settings: aerosol in THF, room temperature, no heating
Experimental: Coupons which had been treated were rinsed several times with deposition solvent and, where appropriate, ethanol and/or water, to remove soluble residues. A piece of tape (e.g., 3M red Scotch™ “650” tape or Scotch Masking Tape #234; 37 oz./in. adhesion to steel) was adhered to the derivatized surface of the solvent washed foil sample and quickly removed. The freshly “peeled” coupon was then analyzed again by DRIFT spectroscopy.
Samples of coupons of aluminum, iron, and titanium, prepared as described above, were treated with an aerosol of n-octadecanephosphonic acid in tetrahydrofuron (THF) at room temperature in the ambient environment. Following the spray application of the acid solution the solvent was allowed to evaporate at ambient temperature and the derivatized surfaces of the coupons were analyzed by FTIR. The surfaces where then washed with THF and analyzed both before and after a peel test using red Scotch™ “650” tape.

[3] = pH 7; cited from earlier work
[4] = Quartz crystal microbalance (QCM) surface coverage / loading of phosphonate coatings on Ti; type: physicochemical
Experimental: The QCM technique allows accurate, gravimetric determination of mass changes on an electrode which is deposited on a piezoelectric quartz crystal. It is, thus, ideal to monitor surface reactions of target metals when they are used as such electrodes: the QCM oscillates at a resonant frequency which is determined by the cut and mass of the crystal, and, just as for a classical oscillator, changes in electrode mass result in changes in crystal resonant frequency. […] Up to three different reference crystals (prepared in different batches) were used as received to calibrate the QCM. […] To ensure that monolayer coverage (at most) occurred on Ti surface, phosphonic acid-based films were subjected to copious rinsing followed by evacuation (≦10^−2 Torr) until a constant crystal frequency was established (within experimental noise levels of ±2 Hz).
Piezoelectric quarts crystals (International Crystal Manufacturers [ICM]; AT-cut, 1000 Å Ti electrodes, 10 MHz, overtone polished, 0.201 in. electrode diameter) were used for film deposition and as references. […] In each experimental run, the fundamental frequency (fo) of an unreacted crystal was measured. […] A new frequency (fc) was then measured. The crystal was then subjected to rinsing followed by evacuation (≦10^−2 Torr) until a constant frequency was measured (±2 Hz), assumed to be a monolayer coverage of the Ti electrodes. […]

[5] = Hydrolytic stability of DANSYL-RGDC labelled diphosphonate SAM by fluorimetry; type: physicochemical; settings: after about 96 hours at pH 7.5, cleaved at about pH 12
Experimental: To further test the stability of diphosphonate SAMs towards aqueous conditions, fluorimetry was employed. Coupons of Ti-mPEG were then exposed to vapor of […] to yield the surface-bound complex. The complex modified coupons were then treated with a solution of 6-maleimidohexanoic acid in THF and were then rinsed thoroughly, and analyzed via IR (vCO≈1705 cm^−1). The coupons were then placed in a solution of N-(5-dimethylamino-1-naphthyl-sulfonyl)-RGDC (DANSYL-RGDC), then rinsed thoroughly, and probed via IR (vpeptide-CO≈1650-1690 cm^−1). The DANSYL group provides a fluorescent “tag” with which to monitor hydrolysis of the surface.
Fluorophore-labeled coupons were immersed in water at about pH 7.5. Fluorescence intensity of the supernatant was measured over about 90 hours; a calibration curve of DANSYL-RGDC was also prepared to relate concentrations in solution with fluorescence intensity, according to Beer's Law. […] Fluorescence intensity in the supernatant was measured against a second calibration curve of DANSYL-RGDC at about pH 12, and the solution concentration was determined by Beer's Law. […] At this point, the DANSYL-RGDC remaining on the surface was measured by exposing the coupon to strong alkaline (about pH 12) for about 3 hours to cleave any remaining zirconium complex species from the SAM. […]

[6] = target: αvβ3 integrins (Homo sapiens, UniProt P05106+P06756); settings: cited from earlier work
Sequence of αvβ3 integrins (P06756 31-1048): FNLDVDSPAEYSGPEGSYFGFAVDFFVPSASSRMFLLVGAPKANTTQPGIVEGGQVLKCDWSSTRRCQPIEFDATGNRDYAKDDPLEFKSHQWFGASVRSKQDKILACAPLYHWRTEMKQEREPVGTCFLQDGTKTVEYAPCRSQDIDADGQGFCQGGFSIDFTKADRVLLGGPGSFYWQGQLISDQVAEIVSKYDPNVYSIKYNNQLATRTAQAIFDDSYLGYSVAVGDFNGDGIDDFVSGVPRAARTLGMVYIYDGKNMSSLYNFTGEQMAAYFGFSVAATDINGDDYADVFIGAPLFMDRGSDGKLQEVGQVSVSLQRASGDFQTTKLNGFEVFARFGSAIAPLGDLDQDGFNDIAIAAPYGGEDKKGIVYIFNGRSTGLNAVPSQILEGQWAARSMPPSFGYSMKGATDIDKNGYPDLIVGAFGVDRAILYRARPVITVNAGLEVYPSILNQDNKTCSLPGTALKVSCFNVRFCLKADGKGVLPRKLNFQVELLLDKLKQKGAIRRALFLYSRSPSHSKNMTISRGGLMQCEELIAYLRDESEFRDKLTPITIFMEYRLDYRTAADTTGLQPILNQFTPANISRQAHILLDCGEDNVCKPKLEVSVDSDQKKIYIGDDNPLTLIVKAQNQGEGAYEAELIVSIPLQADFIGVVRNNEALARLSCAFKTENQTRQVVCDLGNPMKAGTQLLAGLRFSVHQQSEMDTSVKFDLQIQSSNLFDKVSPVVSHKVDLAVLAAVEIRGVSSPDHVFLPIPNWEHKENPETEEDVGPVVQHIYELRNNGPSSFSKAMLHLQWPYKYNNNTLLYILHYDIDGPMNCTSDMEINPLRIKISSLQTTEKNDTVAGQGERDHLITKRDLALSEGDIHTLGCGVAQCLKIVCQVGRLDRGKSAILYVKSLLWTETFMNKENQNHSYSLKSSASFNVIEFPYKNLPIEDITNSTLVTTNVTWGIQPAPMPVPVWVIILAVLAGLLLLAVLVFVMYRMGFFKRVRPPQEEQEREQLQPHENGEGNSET
Sequence of αvβ3 integrins (P05106 27-788): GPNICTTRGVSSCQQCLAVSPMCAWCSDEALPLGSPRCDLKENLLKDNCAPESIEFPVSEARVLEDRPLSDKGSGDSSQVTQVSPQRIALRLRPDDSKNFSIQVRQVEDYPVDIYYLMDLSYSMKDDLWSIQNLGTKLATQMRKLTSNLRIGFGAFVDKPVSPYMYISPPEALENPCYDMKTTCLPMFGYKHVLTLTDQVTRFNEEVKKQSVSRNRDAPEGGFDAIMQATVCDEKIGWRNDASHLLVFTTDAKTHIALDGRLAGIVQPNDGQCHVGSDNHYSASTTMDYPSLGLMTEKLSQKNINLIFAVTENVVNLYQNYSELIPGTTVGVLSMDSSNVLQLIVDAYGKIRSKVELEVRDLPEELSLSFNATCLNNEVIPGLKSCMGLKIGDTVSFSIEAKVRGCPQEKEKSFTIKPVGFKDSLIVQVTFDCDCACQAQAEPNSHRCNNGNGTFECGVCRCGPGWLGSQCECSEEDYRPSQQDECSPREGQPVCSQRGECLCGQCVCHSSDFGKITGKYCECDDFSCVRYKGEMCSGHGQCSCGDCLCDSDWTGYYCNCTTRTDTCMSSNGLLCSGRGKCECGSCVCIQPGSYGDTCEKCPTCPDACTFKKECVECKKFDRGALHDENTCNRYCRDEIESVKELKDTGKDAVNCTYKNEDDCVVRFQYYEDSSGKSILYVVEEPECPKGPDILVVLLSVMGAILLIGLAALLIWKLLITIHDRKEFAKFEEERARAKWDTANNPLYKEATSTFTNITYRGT

For `CCCCCCCCCCCCCCCCCC[Si](C)(C)Cl` [octadecyldimethylchlorosilane], the “Surface hydrolysis of coated powders (in words)” value [1] is listed as “almost total surface hydrolysis”.

With `CCCCCCCCCCCCCCCCCCP(=O)(O)O` [octadecylphosphonic acid] the “Persistence of phosphonic acid layer after washing and peel test, aluminum native oxide” value [2] was “survives washing, but not peel testing”, the “Persistence of phosphonic acid layer after washing and peel test, iron native oxide” value [2] was “survives both washing and peel testing” and the “Persistence of phosphonic acid layer after washing, titanium native oxide” value [2] was “readily removed by washing with the deposition solvent”. For the same molecule, the “Bound material lost from the surface of TiO2” value ([1]; neutral pH) was 16% and the “Bound material lost from the surface of ZrO2” value ([1]; neutral pH) was 5%.

For “(cyclo)-1,6 acetyl-CRGDF-penicillamine-NH2”, the “Stability relative to linear RGDF” value [3] is given as 30 times.

In the case of “Arg-Gly-Asp-Cys (RGDC; printed: Arg-Gly-Asp-Cys) [cysteine modified fibronectin cell attachment peptide]”, the “RGDC loadings on SAMs of 11-hydroxyphosphonate on Ti” value [4] is reported as roughly 0.52 nmol/cm^2.

With “N-(5-dimethylamino-1-naphthyl-sulfonyl)-RGDC [DANSYL-RGDC]” the “Surface loading of DANSYL-RGDC stable at about pH 7.5” value [5] was “about 0.58 nmol/cm^2”.

For cyclic (RGDFV-), the “Specificity towards αvβ3 integrins relative to linear GRGDSPK” value [6] is listed as “over 100 times”.

Source: patent US8993117B2, “Devices with multiple surface functionality” (The Trustees of Princeton University, priority 2005, dated 2015)
